Among the data in the NIST ThermoML archive (doi:10.1016/j.jct.2015.07.042) are activity coefficient values, retold here.

Numbers after ± are expanded uncertainties.

This data set in a line: activity coefficient (dimensionless); of the first substance listed, at infinite dilution; xn = mol fraction of the nth substance listed. As to conditions: 101 kPa, Liquid, Chromatography, x1 = 0.

Turning to `CO` [methanol] + CCCCn1cc[n+](C)c1.COP(=O)([O-])OC, the activity coefficient (398.15 K) was 0.097 ± 0.03, the activity coefficient (408.15 K) stood at 0.105 ± 0.03, the activity coefficient (418.15 K) worked out at 0.115 ± 0.03 and the activity coefficient (428.15 K) is 0.125 ± 0.03.

For the compound `CO` [methanol] + CCCCn1cc[n+](C)c1.CS(=O)(=O)[O-], the activity coefficient runs as follows: (398.15 K) 0.325 ± 0.032; (408.15 K) 0.34 ± 0.032; (418.15 K) 0.357 ± 0.033; (428.15 K) 0.373 ± 0.033.

With `CO` [methanol] + CCCCn1cc[n+](C)c1.[Cl-], the activity coefficient is, setting by setting: (398.15 K) 0.156 ± 0.029; (408.15 K) 0.166 ± 0.029; (418.15 K) 0.176 ± 0.029; (428.15 K) 0.191 ± 0.029.

Take `CCCC(=O)OC` [methyl butanoate] + CCCCn1cc[n+](C)c1.COP(=O)([O-])OC: the activity coefficient is, setting by setting: (358.15 K) 4.93 ± 0.34; (368.15 K) 5.04 ± 0.34; (378.15 K) 5.17 ± 0.35; (388.15 K) 5.39 ± 0.37.

Turning to `CCCC(=O)OC` [methyl butanoate] + CCCCn1cc[n+](C)c1.CS(=O)(=O)[O-], the activity coefficient runs as follows: (358.15 K) 6.79 ± 0.46; (368.15 K) 7.21 ± 0.49; (378.15 K) 7.39 ± 0.5; (388.15 K) 7.84 ± 0.53.

Turning to `CCCC(=O)OC` [methyl butanoate] + CCCCn1cc[n+](C)c1.[Cl-], the activity coefficient by setting is: (358.15 K) 12.3 ± 0.84; (368.15 K) 12.4 ± 0.85; (378.15 K) 12.6 ± 0.86; (388.15 K) 12.7 ± 0.87.

With `COC(C)=O` [methyl ethanoate] + CCCCn1cc[n+](C)c1.COP(=O)([O-])OC, the activity coefficient (358.15 K) stood at 2.58 ± 0.18, the activity coefficient (368.15 K) was determined as 2.65 ± 0.18, the activity coefficient (378.15 K) is 2.73 ± 0.19 and the activity coefficient (388.15 K) turned out to be 2.85 ± 0.19.

Turning to `COC(C)=O` [methyl ethanoate] + CCCCn1cc[n+](C)c1.CS(=O)(=O)[O-], the activity coefficient by setting is: (358.15 K) 2.94 ± 0.2; (368.15 K) 3.03 ± 0.21; (378.15 K) 3.14 ± 0.21; (388.15 K) 3.33 ± 0.23.

For the compound `COC(C)=O` [methyl ethanoate] + CCCCn1cc[n+](C)c1.[Cl-], the activity coefficient is, setting by setting: (358.15 K) 4.82 ± 0.33; (368.15 K) 4.89 ± 0.33; (378.15 K) 5.01 ± 0.34; (388.15 K) 5.09 ± 0.35.

For `CCC(=O)OC` [methyl propanoate] + CCCCn1cc[n+](C)c1.COP(=O)([O-])OC, the activity coefficient (358.15 K) amounted to 3.56 ± 0.24, the activity coefficient (368.15 K) is 3.65 ± 0.25, the activity coefficient (378.15 K) was found to be 3.76 ± 0.26 and the activity coefficient (388.15 K) was found to be 3.93 ± 0.27.

`CCC(=O)OC` [methyl propanoate] + CCCCn1cc[n+](C)c1.CS(=O)(=O)[O-]: the activity coefficient is, setting by setting: (358.15 K) 4.43 ± 0.3; (368.15 K) 4.56 ± 0.31; (378.15 K) 4.68 ± 0.32; (388.15 K) 4.9 ± 0.33.

Take `CCC(=O)OC` [methyl propanoate] + CCCCn1cc[n+](C)c1.[Cl-]: the activity coefficient by setting is: (358.15 K) 8 ± 0.55; (368.15 K) 8.09 ± 0.55; (378.15 K) 8.2 ± 0.56; (388.15 K) 8.31 ± 0.57.

Consider `CC1CCCCC1` [methylcyclohexane] + CCCCn1cc[n+](C)c1.COP(=O)([O-])OC, for which the activity coefficient is, setting by setting: (358.15 K) 17.4 ± 1.2; (368.15 K) 16.8 ± 1.1; (378.15 K) 16.4 ± 1.1; (388.15 K) 16.1 ± 1.1.

On to `CC1CCCCC1` [methylcyclohexane] + CCCCn1cc[n+](C)c1.CS(=O)(=O)[O-], for which the activity coefficient was found to be 52.8 ± 3.6 (358.15 K), 51.7 ± 3.5 (368.15 K), 50.9 ± 3.5 (378.15 K) and 50.4 ± 3.5 (388.15 K).

Consider `CC1CCCCC1` [methylcyclohexane] + CCCCn1cc[n+](C)c1.[Cl-], for which the activity coefficient reads like this: (358.15 K) 84.2 ± 5.8; (368.15 K) 79 ± 5.4; (378.15 K) 73 ± 5; (388.15 K) 69.8 ± 4.8.

On to `CCCCCCCCC` [nonane] + CCCCn1cc[n+](C)c1.COP(=O)([O-])OC, for which the activity coefficient reads like this: (358.15 K) 67.9 ± 4.7; (368.15 K) 64 ± 4.4; (378.15 K) 61.5 ± 4.2; (388.15 K) 59.1 ± 4.

Regarding `CCCCCCCCC` [nonane] + CCCCn1cc[n+](C)c1.CS(=O)(=O)[O-], the activity coefficient by setting is: (358.15 K) 251 ± 17; (368.15 K) 239 ± 16; (378.15 K) 229 ± 16; (388.15 K) 223 ± 15.

Turning to `CCCCCCCCC` [nonane] + CCCCn1cc[n+](C)c1.[Cl-], the activity coefficient by setting is: (358.15 K) 476 ± 33; (368.15 K) 433 ± 30; (378.15 K) 394 ± 27; (388.15 K) 376 ± 26.

Consider `C=CCCCCCC` [oct-1-ene] + CCCCn1cc[n+](C)c1.COP(=O)([O-])OC, for which the activity coefficient by setting is: (358.15 K) 27.5 ± 1.9; (368.15 K) 26.9 ± 1.8; (378.15 K) 26.5 ± 1.8; (388.15 K) 26.2 ± 1.8.

Regarding `C=CCCCCCC` [oct-1-ene] + CCCCn1cc[n+](C)c1.CS(=O)(=O)[O-], the activity coefficient (358.15 K) amounted to 88.1 ± 6, the activity coefficient (368.15 K) turned out to be 86.8 ± 6, the activity coefficient (378.15 K) came to 86.5 ± 5.9 and the activity coefficient (388.15 K) was 85.6 ± 5.9.

With `C=CCCCCCC` [oct-1-ene] + CCCCn1cc[n+](C)c1.[Cl-], the activity coefficient reads like this: (358.15 K) 142 ± 9.7; (368.15 K) 134 ± 9.2; (378.15 K) 126 ± 8.6; (388.15 K) 122 ± 8.4.

On to `CCCCCCCC` [octane] + CCCCn1cc[n+](C)c1.COP(=O)([O-])OC, for which the activity coefficient came to 47.9 ± 3.3 (358.15 K), 46.2 ± 3.2 (368.15 K), 44.6 ± 3 (378.15 K) and 43.4 ± 3 (388.15 K).

For the compound `CCCCCCCC` [octane] + CCCCn1cc[n+](C)c1.CS(=O)(=O)[O-], the activity coefficient reads like this: (358.15 K) 171 ± 12; (368.15 K) 165 ± 11; (378.15 K) 160 ± 11; (388.15 K) 155 ± 11.

Turning to `CCCCCCCC` [octane] + CCCCn1cc[n+](C)c1.[Cl-], the activity coefficient runs as follows: (358.15 K) 331 ± 23; (368.15 K) 302 ± 21; (378.15 K) 268 ± 18; (388.15 K) 258 ± 18.

On to `CCCC(C)=O` [pentan-2-one] + CCCCn1cc[n+](C)c1.COP(=O)([O-])OC, for which the activity coefficient was 3.63 ± 0.25 (358.15 K), 3.7 ± 0.25 (368.15 K), 3.78 ± 0.26 (378.15 K) and 3.94 ± 0.27 (388.15 K).

For `CCCC(C)=O` [pentan-2-one] + CCCCn1cc[n+](C)c1.CS(=O)(=O)[O-], the activity coefficient by setting is: (358.15 K) 4.5 ± 0.31; (368.15 K) 4.59 ± 0.31; (378.15 K) 4.76 ± 0.32; (388.15 K) 4.91 ± 0.33.

With `CCCC(C)=O` [pentan-2-one] + CCCCn1cc[n+](C)c1.[Cl-], the activity coefficient turned out to be 7.59 ± 0.52 (358.15 K), 7.71 ± 0.53 (368.15 K), 7.78 ± 0.53 (378.15 K) and 8.01 ± 0.55 (388.15 K).

With `CCC(=O)CC` [pentan-3-one] + CCCCn1cc[n+](C)c1.COP(=O)([O-])OC, the activity coefficient reads like this: (358.15 K) 3.73 ± 0.25; (368.15 K) 3.81 ± 0.26; (378.15 K) 3.89 ± 0.26; (388.15 K) 4.04 ± 0.28.
